For assay [1], the system named is Pseudomonas aeruginosa PA01. The assay can be described thus: Bacterial adhesion to peptide-coated glass surfaces, LIVE/DEAD fluorescence microscopy. The assay is classed as cell-based. The following applies: P. aeruginosa; for total surface coverage of bacteria / proportion of non-viable cells to total bacteria present / reduction of total surface coverage compared to BLK: peptide attached to maleimide-functionalised glass; for total surface coverage of bacteria: 48 hours incubation, BLK over 21.7%; for proportion of non-viable cells to total bacteria present: BLK 5.8%; for reduction of total surface coverage compared to BLK: versus blank glass. The method, then:
(§1) Bacterial strains (Staphylococcus aureus strain 38 or Pseudomonas aeruginosa PA01) were streaked onto Chocolate agar (Oxoid, UK) and incubated overnight at 37° C. A single colony was cultured in 10 ml of tryptone soya broth (TSB) (Oxoid, UK) overnight to log phase at 37° C. Optical density of the resulting culture was adjusted to OD660 of 0.1 (corresponding to 1×10^8 cfu/ml) in TSB media (0.25% w/v glucose). Bacterial numbers were confirmed by a retrospective viable count.
(§2) Glass surfaces were placed in 4 ml of the above culture and incubated at 37° C. with shaking at 60 rpm for 24 hours, then the media was replaced with fresh TSB (4 ml) and incubated for a further 24 hours (total of 48 hours). The samples were then washed with PBS before examination by fluorescent staining
(§3) Glass samples with adherent bacteria prepared as described above were stained with LIVE/DEAD BacLight Bacterial Viability Kit (Molecular Probes, Inc., OR, USA) according to the manufacturer's directions as described by others for the analysis of biofilms at surfaces (Kirov, Barraud). Microscopic observation and image acquisition was performed with Olympus FV1000 Confocal Inverted Microscope. Images obtained from 10 representative areas on each of triplicate samples for each surface were analysed using Image software (Abramoff et al.); Biophotonics International. 2004, 11(7), pp 36-42 and Rasband et al. Image). Bethesda Md., USA, U.S. National Institutes of Health, 1997 ? 2011, available from http://imagej.hih.gov.au/ij/). The image analysis results were measured as the average area of live cells and the average area of dead cells per field of view and are reported as the average percentage coverage. Prior to comparing the groups, equality of variances was tested using Levene's test. Unequal variances were adjusted by transforming the data using square root transformation. Differences between the groups were analysed using linear mixed model ANOVA, which adjusts the correlation due to repeated observations. Post hoc multiple comparisons were done using Dunnett T3 comparison. Statistical significance was set at 5%.
(§4) The adhesion of Pseudomonas aeruginosa and Staphylococcus aureus to the modified surfaces was evaluated using fluorescence microscopy. The images obtained were analysed using ImageJ software (Abramoff et al. J. Biophotonics International. 2004, 11(7), pp 36-42 and Rasband et al. ImageJ. Bethesda Md., USA, U.S. National Institutes of Health, 1997-2011, available from http://imagej.hih.gov.au/ij/). The areas of the surfaces covered by bacteria and the relative proportions of bacteria with intact and damaged membranes for each surface were examined by image analysis and the results are shown in FIG. 4.

Assay [2] concerns Staphylococcus aureus strain 38. The assay is described as above. The format is cell-based. The following applies: S. aureus; for total surface coverage of bacteria / proportion of non-viable bacteria / reduction in total bacteria compared with BLK: peptide attached to maleimide-functionalised glass; for total surface coverage of bacteria: 48 hours incubation, controls more than 16%; for proportion of non-viable bacteria: BLK 2.2%; for reduction in total bacteria compared with BLK: versus blank glass. The method, then:
as §1, §2, §3, §4

[3] abbreviates: surface-attached, fold versus CysC.

For the sequence “TLISWIKNKRKQRPRVSRRRRRRGGRRRRC [CysC, melimine wherein an extra cysteine residue has been added to the C-terminus]”, in assay [1], the “total surface coverage of bacteria” value is 11.3%, the “proportion of non-viable cells to total bacteria present” value (“proportion of non-viable cells” for short) is reported as “not statistically different to the controls” and the “reduction of total surface coverage compared to BLK” value (shortened to “reduction of total surface coverage”) was found to be 47.7%. Moreover, in assay [2], the “total surface coverage of bacteria” value came to 11.8% and the “proportion of non-viable bacteria” value was “not different to the control”.
With “CTLISWIKNKRKQRPRVSRRRRRRGGRRRR [CysN, melimine wherein an extra cysteine residue has been added to the N-terminus]”, in assay [1], the “total surface coverage of bacteria” value is 6.6%, the “proportion of non-viable cells” value stood at 40.6% and the “reduction of total surface coverage” value was found to be 69.4%. Also, in assay [1] (setting [3]), the “effectiveness in reducing total surface coverage relative to CysC” value was “approximately 2 times” and the “nonviable cells (stained red) relative to CysC” value was roughly 3 times. In assay [2], the “total surface coverage of bacteria” value came out at 3.0%, the “proportion of non-viable bacteria” value came to 13.0% and the “reduction in total bacteria compared with BLK” value is reported as 82.7%. In assay [2] (setting [3]), the “effectiveness in reducing total surface coverage relative to CysC” value was “approximately 4 times” and the “nonviable cells (stained red) relative to CysC” value is given as “approximately 8 times”.
Take “TLISWIKNKRKQCRPRVSRRRRRRGGRRRR [Cys13, melimine wherein an extra cysteine residue has been added to position 13]”: in assay [1], the “total surface coverage of bacteria” value came to 7.1%, the “proportion of non-viable cells” value is 30.1% and the “reduction of total surface coverage” value is reported as 67.4%. For the same sequence, in assay [2], the “total surface coverage of bacteria” value turned out to be 6.3%, the “proportion of non-viable bacteria” value was determined as 9.8% and the “reduction in total bacteria compared with BLK” value was determined as 64.1%.

Source of the values: US20140315789A1, “ANTIMICROBIAL PEPTIDES AND USES THEREOF” (NEWSOUTH INNOVATIONS PTY LIMITED, priority 2011, published 2014).
